Assay results taken from ChEMBL document CHEMBL1201862, “PubChem BioAssay data set” (2004).
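Dose response: 5 concentrations. Exposure: 48 h. Format: 96-well plates. Endpoint: linear interpolation; highest concentration if not reached. GI50 marks 50% less growth.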 Calls of active or inactive are those of the source. Cut-off read from the data, not from the text of the source: active = GI50 up to about 1.1 µM and inactive = higher.

Legend:
Assay in all cases: NCI-60 cell line screen, 48 h
UACC-257 = tested on: UACC-257
TK-10 = tested on: TK-10
OVCAR-5 = tested on: OVCAR-5
SF-539 = tested on: SF-539
SK-MEL-2 = tested on: SK-MEL-2
RXF 393 = tested on: RXF 393
SK-MEL-5 = tested on: SK-MEL-5
U-251 = tested on: U-251
OVCAR-3 = tested on: OVCAR-3
A549 = tested on: A549
SR = tested on: SR
RPMI-8226 = tested on: RPMI-8226
SF-295 = tested on: SF-295
LOX IMVI = tested on: LOX IMVI
NCI-H460 = tested on: NCI-H460
HOP-62 = tested on: HOP-62

Measured: GI50

O=C1C(=Cc2ccc([N+](=O)[O-])o2)C(=O)N(CCc2ccccc2)S(=O)(=O)N1CCc1ccccc1
inactive: UACC-257 63 µM | TK-10 42.2 µM | OVCAR-5 > 100 µM | SF-539 38.1 µM | SK-MEL-2 16.6 µM | RXF 393 19.5 µM | SK-MEL-5 18.7 µM | U-251 > 100 µM | OVCAR-3 17.4 µM | A549 > 100 µM | SR 14.3 µM | RPMI-8226 27.4 µM | SF-295 > 100 µM | LOX IMVI 18.7 µM | NCI-H460 > 100 µM

CC(C)(c1ccccc1)c1ccc(OC#N)cc1
inactive: HOP-62 > 100 µM | UACC-257 > 100 µM | TK-10 > 100 µM | OVCAR-5 > 100 µM | SF-539 38.1 µM | SK-MEL-2 > 100 µM | RXF 393 46.1 µM | SK-MEL-5 48.8 µM | U-251 47.2 µM | OVCAR-3 > 100 µM | A549 73.5 µM | SR 19.2 µM | RPMI-8226 34.1 µM | SF-295 60.8 µM | LOX IMVI > 41 µM | NCI-H460 38.5 µM

CC(C)Cc1cc(CCC(=O)Nc2ccccc2[N+](=O)[O-])nc(NC#N)n1
inactive: HOP-62 > 100 µM | UACC-257 > 100 µM | TK-10 > 100 µM | OVCAR-5 > 100 µM | SF-539 > 100 µM | RXF 393 > 100 µM | SK-MEL-5 > 100 µM | U-251 > 100 µM | OVCAR-3 > 100 µM | A549 > 100 µM | SR > 100 µM | RPMI-8226 > 100 µM | SF-295 > 100 µM | LOX IMVI > 100 µM | NCI-H460 > 100 µM

C[C@]1(CO)CCC[C@@]2(C)C1CC[C@H]1CC3C[C@]12CC[C@]3(C)O (stereo partly drawn)
inactive: HOP-62 39.8 µM | UACC-257 54.2 µM | TK-10 37.5 µM | OVCAR-5 > 100 µM | SF-539 57.7 µM | RXF 393 46.7 µM | SK-MEL-5 17.9 µM | U-251 42.1 µM | OVCAR-3 > 100 µM | A549 70.5 µM | SR 83.2 µM | RPMI-8226 17.3 µM | SF-295 > 100 µM | LOX IMVI 90.6 µM | NCI-H460 19 µM

O=C1CCCN(c2ccccc2)N1
inactive: HOP-62 > 100 µM | UACC-257 > 100 µM | OVCAR-5 > 100 µM | SF-539 > 100 µM | SK-MEL-2 > 100 µM | RXF 393 > 100 µM | SK-MEL-5 > 100 µM | U-251 > 100 µM | OVCAR-3 > 100 µM | A549 > 100 µM | SR > 100 µM | RPMI-8226 > 100 µM | SF-295 > 100 µM | LOX IMVI > 100 µM | NCI-H460 > 100 µM

COc1cc2c[n+](C)c3c4cc(OC)c(OC)cc4c(OCCCCCCCCOc4cc5c6cc(OC)c(OC)cc6c[n+](C)c5c5cc(OC)c(OC)cc45)cc3c2cc1OC
inactive: HOP-62 > 100 µM | UACC-257 > 100 µM | TK-10 > 100 µM | OVCAR-5 > 100 µM | SF-539 51.4 µM | SK-MEL-2 > 100 µM | RXF 393 > 100 µM | SK-MEL-5 47.8 µM | U-251 12.9 µM | OVCAR-3 > 100 µM | A549 > 100 µM | SR 4.28 µM | RPMI-8226 22.3 µM | SF-295 > 100 µM | LOX IMVI > 100 µM | NCI-H460 > 100 µM

O=C1c2ccccc2C(=O)c2c1cc(S(=O)(=O)O)c(O)c2O [Alizarin Red S]
inactive: HOP-62 > 100 µM | UACC-257 > 100 µM | TK-10 > 100 µM | OVCAR-5 > 100 µM | SF-539 > 100 µM | SK-MEL-2 32.4 µM | RXF 393 > 100 µM | U-251 > 100 µM | OVCAR-3 > 100 µM | A549 > 100 µM | SR > 100 µM | RPMI-8226 > 100 µM | SF-295 > 100 µM | LOX IMVI > 100 µM | NCI-H460 > 100 µM

CN1C(=O)C(=O)c2cc3c(c4c2c1cc1ccccc14)OCO3 [CEPHARADIONE A]
inactive: HOP-62 41.2 µM | UACC-257 51.5 µM | TK-10 52.5 µM | OVCAR-5 48.8 µM | SF-539 45.6 µM | SK-MEL-2 46.7 µM | RXF 393 25.6 µM | SK-MEL-5 28.4 µM | U-251 43.4 µM | OVCAR-3 62.1 µM | A549 33.7 µM | SR 7.5 µM | RPMI-8226 25.1 µM | SF-295 38.7 µM | LOX IMVI 23 µM | NCI-H460 26.7 µM
